Data as given in patent EP0396827A1, “2-Phenylthiobenzylamine dervivatives and acid addition salts thereof” (SPOFA Spojené Podniky Pro Zdravotnickou Vyrobu, priority 1989, dated 1990).
Where a name gives a salt, the structure may show the parent alone.

Key:
IP receptors = target: T1, IP receptors (Rattus norvegicus, UniProt P31652); assay: inhibition of tritium-labelled imipramine binding in rat hypothalamus
T1 construct: standard biochemical tests on rat hypothalamus; from tissue; host or cells: rat hypothalamus
Description: (§1) The above compound was selected as a preferred structure from numerous related new substances on the basis of pharmacological evaluation.
(§2) The substances under study were tested in the form of salts administered p.o. The results are conventionally expressed as medium inhibition concentrations IC₅₀ (nM) and effective doses ED (eliciting a first statistically significant response) or medium effective doses ED₅₀ (mg per kg); the concentrations and effective doses are calculated as the corresponding amounts of the base.
(§3) Acute toxicity was tested in mice p.o. and medium lethal dose LD₅₀ is given. Thus, compound IA hydrogen maleate LD₅₀ 232 mg/kg. […] Reserpine hypothermia ED 10, ptosis 25, ulceration 50 mg/kg. Yohimbine, ED₅₀ 54.7 mg/kg.

5-HT re-uptake = assay: ³H-5-HT re-uptake inhibition in rat brain cortex; assay type: biochemical; conditions: ³H-5-HT 10 nM, calculated as base, read-out: 5-HT re-uptake IC₅₀
Description: (§4) The reported selective action of compound IA was verified by direct comparison of ³H-5-HT (10 nM) and ³H-noradrenaline (NA, 10 nM) re-uptake in rat brain cortex; again the two sets of values were markedly differentiated in the sense of predominant 5-HT re-uptake inhibition.
as §2, §3

[1] = potentiation of yohimbine toxicity in mice; assay type: in vivo; conditions: Mus musculus, po, calculated as base, read-out: Yohimbine, ED₅₀
Description: (§5) Also, standard pharmacological tests of antireserpine activity (on experimental hypothermia, eyelid ptosis and gastric ulceration) and potentiation of yohimbine toxicity in mice are indicative of pronounced antidepressant properties of compound IA.
as §2, §3

NA re-uptake = assay: ³H-noradrenaline re-uptake inhibition in rat brain cortex; assay type: biochemical; conditions: ³H-noradrenaline 10 nM, calculated as base, read-out: NA re-uptake IC₅₀
Description: as §4, §2, §3

[2] = antireserpine activity: reserpine gastric ulceration; assay type: in vivo; conditions: p.o.; ED eliciting a first statistically significant response; calculated as base
Description: as §5, §2, §3

[3] = acute toxicity in mice p.o.; conditions: mouse, in vivo, po, read-out: LD₅₀
Description: as §3

DP receptors = target: T2, DP receptors (Rattus norvegicus, UniProt Q63380); assay: inhibition of tritium-labelled desipramine binding in rat hypothalamus
T2 construct: standard biochemical tests on rat hypothalamus; from tissue; host or cells: rat hypothalamus
Description: as §1, §2, §3

[4] = antireserpine activity: reserpine hypothermia; assay type: in vivo; conditions: p.o.; ED eliciting a first statistically significant response; calculated as base
Description: as §5, §2, §3

[5] = antireserpine activity: reserpine eyelid ptosis; assay type: in vivo; conditions: p.o.; ED eliciting a first statistically significant response; calculated as base
Description: as §5, §2, §3

T1 sequence (P31652 whole entry): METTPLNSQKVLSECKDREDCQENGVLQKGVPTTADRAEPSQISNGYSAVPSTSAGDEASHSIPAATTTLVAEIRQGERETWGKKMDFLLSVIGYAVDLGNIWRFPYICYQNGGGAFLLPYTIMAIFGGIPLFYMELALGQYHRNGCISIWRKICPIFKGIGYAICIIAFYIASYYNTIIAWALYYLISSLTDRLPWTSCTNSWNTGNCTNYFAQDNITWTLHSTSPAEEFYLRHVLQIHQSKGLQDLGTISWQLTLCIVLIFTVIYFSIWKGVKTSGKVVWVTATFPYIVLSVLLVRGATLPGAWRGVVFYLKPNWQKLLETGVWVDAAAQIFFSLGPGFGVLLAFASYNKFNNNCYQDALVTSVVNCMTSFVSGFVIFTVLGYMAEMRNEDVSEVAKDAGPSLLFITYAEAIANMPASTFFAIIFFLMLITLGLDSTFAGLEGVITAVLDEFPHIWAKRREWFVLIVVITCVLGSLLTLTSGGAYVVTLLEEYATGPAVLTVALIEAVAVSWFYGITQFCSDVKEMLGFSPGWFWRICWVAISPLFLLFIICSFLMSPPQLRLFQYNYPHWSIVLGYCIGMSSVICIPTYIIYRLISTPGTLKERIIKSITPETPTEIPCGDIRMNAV
T2 sequence (Q63380 1-617): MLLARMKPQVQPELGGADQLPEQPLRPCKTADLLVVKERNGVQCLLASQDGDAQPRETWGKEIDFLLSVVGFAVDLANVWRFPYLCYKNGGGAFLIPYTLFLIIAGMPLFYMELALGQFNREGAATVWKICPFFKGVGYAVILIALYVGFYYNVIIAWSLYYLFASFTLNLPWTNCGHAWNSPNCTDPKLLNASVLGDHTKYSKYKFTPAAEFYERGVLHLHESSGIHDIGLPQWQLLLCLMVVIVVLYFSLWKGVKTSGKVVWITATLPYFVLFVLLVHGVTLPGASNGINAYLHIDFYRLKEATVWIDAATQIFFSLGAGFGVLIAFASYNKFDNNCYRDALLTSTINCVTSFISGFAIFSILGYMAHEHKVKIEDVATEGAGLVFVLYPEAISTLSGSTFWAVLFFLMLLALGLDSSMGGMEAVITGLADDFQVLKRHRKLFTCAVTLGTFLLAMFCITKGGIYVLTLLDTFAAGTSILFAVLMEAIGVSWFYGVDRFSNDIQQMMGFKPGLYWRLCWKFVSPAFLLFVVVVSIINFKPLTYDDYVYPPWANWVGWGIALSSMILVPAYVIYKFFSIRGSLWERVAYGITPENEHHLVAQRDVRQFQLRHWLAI

SMILES: CN(C)Cc1ccccc1Sc1cccc(O)c1 [compound IA hydrogen maleate, N,N-Dimethyl-2-(3-hydroxyphenylthio)benzylamine]
- IC50 (IP receptors): 0.00424 µM
- IC50 (5-HT re-uptake): 0.00058 µM
- ED50 [1]: 54.7 mg/kg
- IC50 (NA re-uptake): 506 µM
- Reserpine ulceration ED [2]: 50 mg/kg
- LD50 [3]: 232 mg/kg
- IC50 (DP receptors): 12.9 µM
- Reserpine hypothermia ED [4]: 10 mg/kg
- Reserpine ptosis ED [5]: 25 mg/kg
